The target in this assay is T1, human PTP-1B (Homo sapiens, UniProt P18031).
T1 construct: recombinant human PTP-1B[1-298] or PTP-1B[1-322]
T1 sequence (P18031 1-298 limits assumed): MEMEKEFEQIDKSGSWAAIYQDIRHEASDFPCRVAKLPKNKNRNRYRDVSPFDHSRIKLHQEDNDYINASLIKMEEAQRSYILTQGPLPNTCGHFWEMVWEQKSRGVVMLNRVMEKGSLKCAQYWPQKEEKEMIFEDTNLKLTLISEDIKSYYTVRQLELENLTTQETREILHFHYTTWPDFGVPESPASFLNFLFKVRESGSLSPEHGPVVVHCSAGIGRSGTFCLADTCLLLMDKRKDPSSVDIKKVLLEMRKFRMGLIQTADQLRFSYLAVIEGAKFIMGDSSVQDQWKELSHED
The experiment in a line: PTP-1B inhibitory activity in vitro (IC50). Format: biochemical. Conditions: inhibitory activity to human PTP-1B; which of the described assay formats was used is not stated. Here is the method:
Assessment of human PTP-1B (hPTP-1B) activity in the presence of various agents is determined by measuring the amount of inorganic phosphate released from a phosphopeptide substrate using a 96-well microtiter plate format. The assay (100 μL) is performed in an assay buffer comprised of 50 mM TRIS (pH 7.5), 50 mM NaCl, 3 mM DTT at ambient temperature. The assay is typically performed in the presence of 0.4% dimethyl sulfoxide (DMSO). However, concentrations as high as 10% are used with certain poorly soluble compounds. […] Inorganic phosphate, a product of the enzyme reaction, is quantitiated after 15 min as the green color resulting from complexing with the Malichite reagent and is determined as an A620 using a Molecular Devices (Sunnyvale, Calif.) SpectraMAX Plus spectrophotometer. […] Activity is defined as the net change in absorbance resulting from the activity of the uninhibited hPTP-1B[1-411] minus that of a tube with acid-inactivated hPTP-1B[1-411].
Alternatively, the assessment of human PTP-1B activity in the presence of various agents may be determined by measuring the hydrolysis products of known competing substrates. For example, cleavage of substrate para-nitrophenylphosphate (pNPP) results in the release of the yellow-colored para-nitrophenol (pNP) which can be monitored in real time using a spectrophotometer. […]

A word on the pIC50: it is −log10 of the IC50, conventionally taken in molar units. A higher pIC50 goes with a low IC50.

pIC50: −log10 of the molar value.

`CS(=O)(=O)Oc1c(Cl)cccc1Cc1ccc(N2CC(=O)NS2(=O)=O)c(O)c1` [Example No. 52-1, Methanesulfonic acid 2-chloro-6-[3-hydroxy-4-(1,1,4-trioxo-1,2,5-thiadiazolidin-2-yl)-benzyl]-phenyl ester] had a pIC50 of 6.90.

In turn, `COc1ccc(Cc2ccc(N3CC(=O)NS3(=O)=O)c(O)c2)c(OS(C)(=O)=O)c1` [Example No. 52-3, Methanesulfonic acid 2-[3-hydroxy-4-(1,1,4-trioxo-1,2,5-thiadiazolidin-2-yl)-benzyl]-5-methoxyphenyl ester] gave a pIC50 of 6.88.

(Values after patent US8119666B2, “1,2,5-thiazolidine derivatives useful for treating conditions mediated by protein tyrosine phosphatases (PTPase)” (Novartis AG, priority 2005, dated 2012).)
